# What was measured:
# HELAN Pacino = assay: Greenhouse experiment, crop safety of sunflower; assay type: in vivo, Helianthus annuus; conditions: scale 0 to 100%
# Protocol: (§1) For the post emergence treatment, the plants were first grown to the 2 to 4 leaf stage (GS 12/14). The plants were cultivated due to their individual requirements at 10-25° C. and 20-35° C. The plants were irrigated as required.
# (§2) Here, the herbicidal compositions were suspended or emulsified in water as distribution medium and sprayed using finely distributing nozzles. 1% methylated seed oil (MSO) has been added as adjuvant to each of the solo and mixture treatments.
# (§3) In the greenhouse experiments, the herbicidal activity for the individual herbicidal compositions (solo and mixture applications) was assessed 20/21 days after treatment (DAT).
# (§4) The evaluation for the damage on undesired weeds caused by the chemical compositions was carried out using a scale from 0 to 100%, compared to the untreated control plants. Here, 0 means no damage and 100 means complete destruction of the plants.
# Digitaria sanguinalis = assay: Field experiment, pre-emergence herbicidal activity on bare ground; assay type: in vivo; conditions: DIGSA, Preem, Saflufenacil 25, Flumioxazin 71.4 g ai/ha
# Protocol: (§5) Trial Objective: Efficacy of Saflufenacil in tank mix with Flumioxazin applied in pre-emergence of the weeds on bare ground.
# (§6) On field test sites, natural weed infestation was treated, pre-emergence of the weeds on bare soil or post-emergence of the weeds.
# (§7) For the pre-emergence treatment, the active compounds, suspended or emulsified in water, were applied by means of finely distributing nozzles on bare ground.
# as §4, with “In the following experiments, the herbicidal activity for the individual herbicidal compositions (solo and mixture applications) was assessed up to 36 days after treatment (DAT). The” for “The”, “assessments” for “evaluation”
# (§8) [formula] • where X=effect in percent using herbicide (A) at an application rate a; • Y=effect in percent using herbicide (B) at an application rate b; • E=expected effect (in %) of herbicide (A)+herbicide (B) at application rates a+b.
# (§9) The value E corresponds to the effect (plant damage or injury) which is to be expected if the activity of the individual compounds is additive. If the observed effect is higher than the value E calculated according to the Colby equation, a synergistic effect is present.
# Amaranthus palmeri = assay: as above; assay type: in vivo; conditions: AMAPA, Preem, Saflufenacil 25, Flumioxazin 71.4 g ai/ha
# Protocol: as §5, §6, §7
# as §4, with “In the following experiments, the herbicidal activity for the individual herbicidal compositions (solo and mixture applications) was assessed up to 36 days after treatment (DAT). The” for “The”, “assessments” for “evaluation”
# as §8, §9
# Ambrosia trifida = assay: as above; assay type: in vivo; conditions: AMBTR, Preem, Saflufenacil 50, Flumioxazin 71.4 g ai/ha
# Protocol: as §5, §6, §7
# as §4, with “In the following experiments, the herbicidal activity for the individual herbicidal compositions (solo and mixture applications) was assessed up to 36 days after treatment (DAT). The” for “The”, “assessments” for “evaluation”
# as §8, §9
# Setaria faberi = assay: as above; assay type: in vivo; conditions: SETFA, Preem, Saflufenacil 50, Flumioxazin 71.4 g ai/ha
# Protocol: as §5, §6, §7
# as §4, with “In the following experiments, the herbicidal activity for the individual herbicidal compositions (solo and mixture applications) was assessed up to 36 days after treatment (DAT). The” for “The”, “assessments” for “evaluation”
# as §8, §9
# Eleusine indica = assay: as above; assay type: in vivo; conditions: ELEIN
# Protocol: as §5
# (§10) Trial Objective: Efficacy of Saflufenacil in tank mix with Sulfentrazone applied in pre-emergence of the weeds on bare ground.
# as §6, §7
# as §4, with “In the following experiments, the herbicidal activity for the individual herbicidal compositions (solo and mixture applications) was assessed up to 36 days after treatment (DAT). The” for “The”, “assessments” for “evaluation”
# as §8, §9
# Urochloa texana = assay: as above; assay type: in vivo; conditions: PANTE
# Protocol: as §5, §10, §6, §7
# as §4, with “In the following experiments, the herbicidal activity for the individual herbicidal compositions (solo and mixture applications) was assessed up to 36 days after treatment (DAT). The” for “The”, “assessments” for “evaluation”
# as §8, §9
# Mercuralis annua = assay: Greenhouse experiment, post emergence herbicidal activity; assay type: in vivo; conditions: MERAN
# Protocol: as §1, §2, §3, §4
# Sonchus arvensis = assay: as above; assay type: in vivo; conditions: SONAR
# Protocol: as §1, §2, §3, §4
# Hibiscus trionum = assay: as above; assay type: in vivo; conditions: HIBTR
# Protocol: as §1, §2, §3, §4
# Convolvulus arvensis = assay: as above; assay type: in vivo; conditions: CONAR
# Protocol: as §1, §2, §3, §4
# Chenopodium album = assay: as above; assay type: in vivo; conditions: CHEAL
# Protocol: as §1, §2, §3, §4
# Setaria viridis = assay: as above; assay type: in vivo; conditions: SETVI
# Protocol: as §1, §2, §3, §4
# Sorghum halepense = assay: as above; assay type: in vivo; conditions: SORHA
# Protocol: as §1, §2, §3, §4
# Abutilon theophrasti = assay: as above; assay type: in vivo; conditions: ABUTH
# Protocol: as §1, §2, §3, §4
# Papaver rhoeas = assay: as above; assay type: in vivo; conditions: PAPRH
# Protocol: as §1, §2, §3, §4
# Ambrosia artemisiifolia = assay: as above; assay type: in vivo; conditions: AMBEL
# Protocol: as §1, §2, §3, §4
# Echinochloa crus-galli = assay: as above; assay type: in vivo; conditions: ECHCG
# Protocol: as §1, §2, §3, §4
# Polygonum aviculare = assay: as above; assay type: in vivo; conditions: POLAV
# Protocol: as §1, §2, §3, §4
# Erigeron canadensis = assay: as above; assay type: in vivo; conditions: ERICA
# Protocol: as §1, §2, §3, §4
# Matricaria chamomilla = assay: as above; assay type: in vivo; conditions: MATCH
# Protocol: as §1, §2, §3, §4
# [1] = BBCH 12-14, Flumioxazin 0.5, Bifenox 168 g ai/ha
# [2] = BBCH 12-14, Flumioxazin 0.5, Halauxifen 1 g ai/ha
# [3] = Preem, Saflufenacil 25, Flumioxazin 71.4 g ai/ha
# [4] = Preem, Saflufenacil 50, Flumioxazin 71.4 g ai/ha
# [5] = BBCH 12-14, Flumioxazin 0.5, Imazamox 10 g ai/ha
# [6] = BBCH 12-14, Flumioxazin 0.5, Pyraflufen-ethyl 1.5 g ai/ha
# [7] = BBCH 12-14, Flumioxazin 2, Halauxifen 1 g ai/ha
# [8] = BBCH 12-14, Saflufenacil 0.5, Flumioxazin 2 g ai/ha
# [9] = BBCH 12-14, Flumioxazin 2, Fomesafen 123 g ai/ha
# [10] = BBCH 12-14, Flumioxazin 2, Tribenuron-methyl 6 g ai/ha
# [11] = BBCH 12-14, Saflufenacil 1, Flumioxazin 2 g ai/ha
# [12] = BBCH 12-14, Saflufenacil 4, Flumioxazin 2 g ai/ha
# [13] = preemergence, Saflufenacil 25, Sulfentrazone 210 g ai/ha
# [14] = BBCH 12-14, Saflufenacil 0.5, Bifenox 168 g ai/ha
# [15] = BBCH 12-14, Saflufenacil 0.5, Clethodim 30 g ai/ha
# [16] = BBCH 12-14, Saflufenacil 1, Bifenox 168 g ai/ha
# [17] = BBCH 12-14, Saflufenacil 1, Imazamox 10 g ai/ha
structure (smiles),measurement,setting,value
"C#CCN1C(=O)COc2cc(F)c(N3C(=O)C4=C(CCCC4)C3=O)cc21 [Flumioxazin, 2-[7-fluoro-3,4-dihydro-3-oxo-4-(2-propyn-1-yl)-2H-1,4-benzoxazin-6-yl]-4,5,6,7-tetrahydro-1H-isoindole-1,3 (2H)-dione]",Observed crop damage 21 days after treatment,HELAN Pacino; [1],65%
same,Observed crop damage 21 days after treatment,HELAN Pacino; [2],65%
same,% Herbicidal activity,Digitaria sanguinalis,88%
same,% Herbicidal activity,Amaranthus palmeri,85%
same,% Herbicidal activity,Ambrosia trifida,65%
same,% Herbicidal activity,Setaria faberi,72%
same,% Herbicidal activity,Eleusine indica; [3],80%
same,% Herbicidal activity,Urochloa texana; [4],35%
same,% Herbicidal activity,Mercuralis annua; [5],70%
same,% Herbicidal activity,Sonchus arvensis; [1],50%
same,% Herbicidal activity,Sonchus arvensis; [6],50%
same,% Herbicidal activity,Sonchus arvensis; [7],50%
same,% Herbicidal activity,Hibiscus trionum; [5],75%
same,% Herbicidal activity,Hibiscus trionum; [8],90%
same,% Herbicidal activity,"Convolvulus arvensis; BBCH 12-14, Flumioxazin 0.5, Fomesafen 123 g ai/ha",65%
same,% Herbicidal activity,Convolvulus arvensis; [2],65%
same,% Herbicidal activity,"Convolvulus arvensis; BBCH12-14, Flumioxazin 0.5, Pyraflufen-ethyl 1.5 g ai/ha",65%
same,% Herbicidal activity,"Chenopodium album; BBCH 12-14, Flumioxazin 1, Bifenox 168 g ai/ha",70%
same,% Herbicidal activity,Chenopodium album; [9],70%
same,% Herbicidal activity,Setaria viridis; [2],30%
same,% Herbicidal activity,Setaria viridis; [10],70%
same,% Herbicidal activity,Setaria viridis; [11],65%
same,% Herbicidal activity,Sorghum halepense; [12],50%
same,% Herbicidal activity,"Abutilon theophrasti; BBCH 12-14, Flumioxazin 1, Imazamox 10 g ai/ha",90%
same,% Herbicidal activity,"Abutilon theophrasti; BBCH 12-14, Flumioxazin 2, Bifenox 168 g ai/ha",98%
same,% Herbicidal activity,Papaver rhoeas; [1],85%
same,% Herbicidal activity,Papaver rhoeas; [2],85%
same,% Herbicidal activity,Papaver rhoeas; [10],85%
same,% Herbicidal activity,"Ambrosia artemisiifolia; BBCH 12-14, Flumioxazin 4, Imazamox 10 g ai/ha",95%
same,% Herbicidal activity,Echinochloa crus-galli; [9],55%
same,% Herbicidal activity,Polygonum aviculare; [6],45%
same,% Herbicidal activity,"Polygonum aviculare; BBCH 12-14, Flumioxazin 4, Bifenox 168 g ai/ha",95%
same,% Herbicidal activity,Polygonum aviculare; [11],80%
same,% Herbicidal activity,"Erigeron canadensis; BBCH 12-14, Flumioxazin 1, Pyraflufen-ethyl 1.5 g ai/ha",60%
same,% Herbicidal activity,Erigeron canadensis; [11],75%
same,% Herbicidal activity,"Matricaria chamomilla; BBCH 12-14, Flumioxazin 1, Fomesafen 123 g ai/ha",60%
same,% Herbicidal activity,Matricaria chamomilla; [7],65%
same,% Herbicidal activity,Matricaria chamomilla; [11],75%
"CC(C)N(C)S(=O)(=O)NC(=O)c1cc(-n2c(=O)cc(C(F)(F)F)n(C)c2=O)c(F)cc1Cl [Saflufenacil, 2-chloro-5-[3,6-dihydro-3-methyl-2,6-dioxo-4-(trifluoromethyl)-1-(2H)pyrimidinyl]-4-fluoro-N-[[methyl (1-methylethyl)amino]-sulfonyl]benzamide]",% Herbicidal activity,Digitaria sanguinalis,7%
same,% Herbicidal activity,Amaranthus palmeri,27%
same,% Herbicidal activity,Ambrosia trifida,67%
same,% Herbicidal activity,Setaria faberi,37%
same,% Herbicidal activity,Eleusine indica; [3],3%
same,% Herbicidal activity,Eleusine indica; [13],8%
same,% Herbicidal activity,Urochloa texana; [4],13%
same,% Herbicidal activity,Urochloa texana; [13],20%
same,% Herbicidal activity,Mercuralis annua; [14],60%
same,% Herbicidal activity,Sonchus arvensis; [15],98%
same,% Herbicidal activity,Hibiscus trionum; [15],80%
same,% Herbicidal activity,Hibiscus trionum; [8],80%
same,% Herbicidal activity,Convolvulus arvensis; [15],30%
same,% Herbicidal activity,"Convolvulus arvensis; BBCH 12-14, Saflufenacil 0.5, Halauxifen 1 g ai/ha",30%
same,% Herbicidal activity,Convolvulus arvensis; [16],80%
same,% Herbicidal activity,"Chenopodium album; BBCH 12-14, Saflufenacil 4, Clethodim 30 g ai/ha",95%
same,% Herbicidal activity,"Setaria viridis; BBCH 12-14, Saflufenacil 0.5, Imazamox 10 g ai/ha",25%
same,% Herbicidal activity,Setaria viridis; [11],70%
same,% Herbicidal activity,"Sorghum halepense; BBCH 12-14, Saflufenacil 4, Bifenox 168 g ai/ha",60%
same,% Herbicidal activity,Sorghum halepense; [12],60%
same,% Herbicidal activity,Abutilon theophrasti; [16],90%
same,% Herbicidal activity,"Abutilon theophrasti; BBCH 12-14, Saflufenacil 2, Fomesafen 1 g ai/ha",70%
same,% Herbicidal activity,Papaver rhoeas; [14],95%
same,% Herbicidal activity,Ambrosia artemisiifolia; [16],80%
same,% Herbicidal activity,"Ambrosia artemisiifolia; BBCH 12-14, Saflufenacil 1, Clethodim 30 g ai/ha",80%
same,% Herbicidal activity,Ambrosia artemisiifolia; [17],80%
same,% Herbicidal activity,"Ambrosia artemisiifolia; BBCH 12-14, Saflufenacil 1, Tribenuron-methyl 6 g ai/ha",80%
same,% Herbicidal activity,"Echinochloa crus-galli; BBCH 12-14, Saflufenacil 4, Fomesafen 123 g ai/ha",85%
same,% Herbicidal activity,Polygonum aviculare; [15],75%
same,% Herbicidal activity,Polygonum aviculare; [11],3%
same,% Herbicidal activity,Erigeron canadensis; [11],90%
same,% Herbicidal activity,Matricaria chamomilla; [15],45%
same,% Herbicidal activity,Matricaria chamomilla; [11],45%
same,% Herbicidal activity,Matricaria chamomilla; [17],45%
same,% Herbicidal activity,"Matricaria chamomilla; BBCH 12-14, Saflufenacil 2, Halauxifen 1 g ai/ha",98%

# Reference: US20260206757A1, “METHODS OF CONTROLLING UNDESIRABLE PLANTS WITH PPO HERBICIDES AND COMBINATIONS IN HERBICIDE TOLERANT CROP PLANTS” (BASF AGRO B.V., priority 2022, published 2026)
